For this assay, the system named is HT-29 cells. As to the kind of experiment: HT-29 necroptosis cell viability assay (TNF-α/SMAC mimetic/zVAD-FMK, CellTiter-Glo). The format is cell-based. The settings on record: Homo sapiens, HT-29, HT-29 necroptosis cell viability, IC50 class symbols; read-out: Activity. The method in brief: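 Necroptosis was triggered by TNF-α (10 ng/ml), SMAC mimetic (6 μM) and zVAD-FMK (10 μM) in serum-free medium during 20 h compound exposure (10 concentrations, threefold steps) of HT-29 cells. IC50 from duplicate dose-responses uses CellTiter-Glo ATP luminescence as viability read-out.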
(Cellular ATP, detected with luciferase, serves as a proxy for viable cell number.)

Structures are written as SMILES. pIC50: −log10 of the molar value.

Take `CCOC1CN(c2nccc(Oc3ccc(-n4ncn(Cc5c(F)cccc5F)c4=O)cc3)c2C)C1` [Example 236, 4-(2,6-difluorobenzyl)-2-(4-((2-(3-ethoxyazetidin-1-yl)-3-methylpyridin-4-yl)oxy)phenyl)-2,4-dihydro-3H-1,2,4-triazol-3-one]: the pIC50 is more than 7.00.
For the molecule `O=c1n(Cc2c(F)cccc2F)cnn1-c1ccc(Oc2cc(N3CC4(COC4)C3)ncc2F)c(F)c1` [Example 237, 4-(2,6-difluorobenzyl)-2-(3-fluoro-4-((5-fluoro-2-(2-oxa-6-azaspiro[3.3]heptan-6-yl)pyridin-4-yl)oxy)phenyl)-2,4-dihydro-3H-1,2,4-triazol-3-one], the pIC50 was more than 7.00.
As for `CC1(C#N)CN(c2nccc(Oc3ccc(-n4ncn(Cc5c(F)cccc5F)c4=O)cc3F)c2Cl)C1` [Example 238, 1-(3-chloro-4-(4-(4-(2,6-difluorobenzyl)-5-oxo-4,5-dihydro-1H-1,2,4-triazol-1-yl)-2-fluorophenoxy)pyridin-2-yl)-3-methylazetidine-3-carbonitrile], the figure is more than 7.00; as for `COC1(C#N)CN(c2cc(Oc3ccc(-n4ncn(Cc5c(F)cccc5F)c4=O)cc3F)c(C)cn2)C1` [Example 239, 1-(4-(4-(4-(2,6-difluorobenzyl)-5-oxo-4,5-dihydro-1H-1,2,4-triazol-1-yl)-2-fluorophenoxy)-5-methylpyridin-2-yl)-3-methoxyazetidine-3-carbonitrile], more than 7.00.
As for `C[C@H]1C[C@@H](C#N)CN1c1cc(Oc2ccc(-n3ncn(Cc4c(F)cccc4F)c3=O)cc2F)c(Cl)cn1` [Example 240, (3R,5S)-1-(5-chloro-4-(4-(4-(2,6-difluorobenzyl)-5-oxo-4,5-dihydro-1H-1,2,4-triazol-1-yl)-2-fluorophenoxy)pyridin-2-yl)-5-methylpyrrolidine-3-carbonitrile], the figure is more than 7.00.
In the case of `C[C@H]1[C@@H](N(C)C)CN1c1cc(Oc2ccc(-n3ncn(Cc4c(F)cccc4F)c3=O)cc2F)c(F)cn1` [Example 241, 4-(2,6-difluorobenzyl)-2-(4-((2-((2S,3S)-3-(dimethylamino)-2-methylazetidin-1-yl)-5-fluoropyridin-4-yl)oxy)-3-fluorophenyl)-2,4-dihydro-3H-1,2,4-triazol-3-one], the pIC50 was more than 7.00.
As for `C[C@H]1[C@@H](C#N)CN1c1nccc(Oc2ccc(-n3ncn(Cc4c(F)cccc4F)c3=O)cc2)c1F` [Example 242, (2S,3S)-1-(4-(4-(4-(2,6-difluorobenzyl)-5-oxo-4,5-dihydro-1H-1,2,4-triazol-1-yl)phenoxy)-3-fluoropyridin-2-yl)-2-methylazetidine-3-carbonitrile], the figure is more than 7.00; as for `CCCOC1CN(c2cc(Oc3ccc(-n4ncn(Cc5c(F)cccc5F)c4=O)cc3)ccn2)C1` [Example 243, 4-(2,6-difluorobenzyl)-2-(4-((2-(3-propoxyazetidin-1-yl)pyridin-4-yl)oxy)phenyl)-2,4-dihydro-3H-1,2,4-triazol-3-one], more than 7.00; as for `C[C@H]1COCCN1c1cc(Oc2ccc(-n3ncn(Cc4c(F)cccc4F)c3=O)cc2)ccn1` [Example 244, (S)-4-(2,6-difluorobenzyl)-2-(4-((2-(3-methylmorpholino)pyridin-4-yl)oxy)phenyl)-2,4-dihydro-3H-1,2,4-triazol-3-one], 6.00 to 7.00.
As for `O=c1n(Cc2c(F)cccc2F)cnn1-c1ccc(Oc2ccnc(N3CCC34COC4)c2)cc1` [Example 245, 2-(4-((2-(6-oxa-1-azaspiro[3.3]heptan-1-yl)pyridin-4-yl)oxy)phenyl)-4-(2,6-difluorobenzyl)-2,4-dihydro-3H-1,2,4-triazol-3-one], the figure is 6.00 to 7.00; as for `N#CC12CC(Nc3nccc(Oc4ccc(-n5ncn(Cc6c(F)cccc6F)c5=O)cc4F)c3F)(C1)C2` [Example 246, 3-((4-(4-(4-(2,6-difluorobenzyl)-5-oxo-4,5-dihydro-1H-1,2,4-triazol-1-yl)-2-fluorophenoxy)-3-fluoropyridin-2-yl)amino)bicyclo[1.1.1]pentane-1-carbonitrile], more than 7.00; as for `Cc1c(Oc2ccc(-n3ncn(Cc4c(F)cccc4F)c3=O)cc2)ccnc1NC12CC(C#N)(C1)C2` [Example 247, 3-((4-(4-(4-(2,6-difluorobenzyl)-5-oxo-4,5-dihydro-1H-1,2,4-triazol-1-yl)phenoxy)-3-methylpyridin-2-yl)amino)bicyclo[1.1.1]pentane-1-carbonitrile], more than 7.00.
In the case of `N#CC12CC(Nc3nccc(Oc4ccc(-n5ncn(Cc6c(F)cccc6F)c5=O)cc4)c3Cl)(C1)C2` [Example 248, 3-((3-chloro-4-(4-(4-(2,6-difluorobenzyl)-5-oxo-4,5-dihydro-1H-1,2,4-triazol-1-yl)phenoxy)pyridin-2-yl)amino)bicyclo[1.1.1]pentane-1-carbonitrile] it was more than 7.00; in that of `CC1(O)CN(c2cc(Oc3ncc(-n4ncn(Cc5c(F)cccc5F)c4=O)cc3F)ccn2)C1` [Example 249, 4-(2,6-difluorobenzyl)-2-(5-fluoro-6-((2-(3-hydroxy-3-methylazetidin-1-yl)pyridin-4-yl)oxy)pyridin-3-yl)-2,4-dihydro-3H-1,2,4-triazol-3-one], 6.00 to 7.00; in that of `C[C@H]1[C@@H](O)CN1c1cc(Oc2ncc(-n3ncn(Cc4c(F)cccc4F)c3=O)cc2F)ccn1` [Example 250, 4-(2,6-difluorobenzyl)-2-(5-fluoro-6-((2-((2S,3S)-3-hydroxy-2-methylazetidin-1-yl)pyridin-4-yl)oxy)pyridin-3-yl)-2,4-dihydro-3H-1,2,4-triazol-3-one], more than 7.00.
Regarding `Cc1cnc(N2CC(C)(C#N)C2)cc1Oc1ccc(-n2ncn(Cc3c(F)cccc3F)c2=O)cc1Cl` [Example 251, 1-(4-(2-chloro-4-(4-(2,6-difluorobenzyl)-5-oxo-4,5-dihydro-1H-1,2,4-triazol-1-yl)phenoxy)-5-methylpyridin-2-yl)-3-methylazetidine-3-carbonitrile], the pIC50 is more than 7.00.
In the case of `N#CC1(F)CN(c2cc(Oc3ccc(-n4ncn(Cc5c(F)cccc5F)c4=O)cc3)ccn2)C1` [Example 252, 1-(4-(4-(4-(2,6-difluorobenzyl)-5-oxo-4,5-dihydro-1H-1,2,4-triazol-1-yl)phenoxy)pyridin-2-yl)-3-fluoroazetidine-3-carbonitrile] it was 6.00 to 7.00; in that of `CC(C)OC1CN(c2cccc(Oc3ccc(-n4ncn(Cc5c(F)cccc5F)c4=O)cc3)n2)C1` [Example 253, 4-(2,6-difluorobenzyl)-2-(4-((6-(3-isopropoxyazetidin-1-yl)pyridin-2-yl)oxy)phenyl)-2,4-dihydro-3H-1,2,4-triazol-3-one], more than 7.00.
As for `CC1(C)CC(=O)N(c2cc(Oc3ccc(-n4ncn(Cc5c(F)cccc5F)c4=O)cc3)ccn2)C1` [Example 254, 4-(2,6-difluorobenzyl)-2-(4-((2-(4,4-dimethyl-2-oxopyrrolidin-1-yl)pyridin-4-yl)oxy)phenyl)-2,4-dihydro-3H-1,2,4-triazol-3-one], the figure is 6.00 to 7.00.
On to `N#CC1CCN(c2cc(Oc3ccc(-n4ncn(Cc5c(F)cccc5F)c4=O)cc3)ccn2)CC1` [Example 255, 1-(4-(4-(4-(2,6-difluorobenzyl)-5-oxo-4,5-dihydro-1H-1,2,4-triazol-1-yl)phenoxy)pyridin-2-yl)piperidine-4-carbonitrile], for which the pIC50 was 6.00 to 7.00.
As for `CC1(C#N)CN(c2nccc(Oc3ccc(-n4ncn(Cc5c(F)cccc5F)c4=O)cc3Cl)c2Cl)C1` [Example 256, 1-(3-chloro-4-(2-chloro-4-(4-(2,6-difluorobenzyl)-5-oxo-4,5-dihydro-1H-1,2,4-triazol-1-yl)phenoxy)pyridin-2-yl)-3-methylazetidine-3-carbonitrile], the figure is more than 7.00.
In the case of `CC1(C#N)CN(c2cc(Oc3ccc(-n4ncn(Cc5c(F)cccc5F)c4=O)cc3F)c(Cl)cn2)C1` [Example 257, 1-(5-chloro-4-(4-(4-(2,6-difluorobenzyl)-5-oxo-4,5-dihydro-1H-1,2,4-triazol-1-yl)-2-fluorophenoxy)pyridin-2-yl)-3-methylazetidine-3-carbonitrile] it was more than 7.00.
On to `O=c1n(Cc2c(F)cccc2F)cnn1-c1ccc(Oc2ccnc(NCC3CCOC3)c2)cc1` (stereo not drawn) [Example 259, 4-(2,6-difluorobenzyl)-2-(4-((2-(((tetrahydrofuran-3-yl)methyl)amino)pyridin-4-yl)oxy)phenyl)-2,4-dihydro-3H-1,2,4-triazol-3-one], for which the pIC50 is 6.00 to 7.00.
As for `CCOC1CN(c2cc(Oc3ccc(-n4ncn(Cc5c(F)cccc5F)c4=O)cc3Cl)c(Cl)cn2)C1` [Example 260, 2-(3-chloro-4-((5-chloro-2-(3-ethoxyazetidin-1-yl)pyridin-4-yl)oxy)phenyl)-4-(2,6-difluorobenzyl)-2,4-dihydro-3H-1,2,4-triazol-3-one], the figure is more than 7.00.
In the case of `CCOC1CN(c2nccc(Oc3ccc(-n4ncn(Cc5c(F)cccc5F)c4=O)cc3)c2Cl)C1` [Example 261, 2-(4-((3-chloro-2-(3-ethoxyazetidin-1-yl)pyridin-4-yl)oxy)phenyl)-4-(2,6-difluorobenzyl)-2,4-dihydro-3H-1,2,4-triazol-3-one] it was 6.00 to 7.00; in that of `CC1(C#N)CN(c2cc(Oc3ccc(-n4ncn(Cc5c(F)cccc5F)c4=O)cc3F)c(F)cn2)C1` [Example 262, 1-(4-(4-(4-(2,6-difluorobenzyl)-5-oxo-4,5-dihydro-1H-1,2,4-triazol-1-yl)-2-fluorophenoxy)-5-fluoropyridin-2-yl)-3-methylazetidine-3-carbonitrile], more than 7.00; in that of `Cc1cnc(N2CC3(CCOCC3)C2)cc1Oc1ccc(-n2ncn(Cc3c(F)cccc3F)c2=O)cc1` [Example 263, 4-(2,6-difluorobenzyl)-2-(4-((5-methyl-2-(7-oxa-2-azaspiro[3.5]nonan-2-yl)pyridin-4-yl)oxy)phenyl)-2,4-dihydro-3H-1,2,4-triazol-3-one], more than 7.00.

For the origin of these results see patent US20250179061A1 (SIRONAX LTD., priority 2022, published 2025).
